Test results: patent US20050234248A1, “Method of producing preparations rich in tocotrienol” (Vis-Vitalis Lizenz- Und Handels Gmbh, priority 2002, published 2005)

System: human serum loaded with p-benzoquinone (quinhydron radicals)
Test: Antioxidant capacity: human serum loaded with p-benzoquinone, colorimetric determination of p-dihydroquinone at 500 nm
Details: for Antiox-Titer: human serum, p-benzoquinone load, extinction at 500 nm/60 sec; for 1 mg of tocotrienol effect in μg radicals/ml · sec.: per 1 mg of tocotrienol; for Radicals μg/ml · sec: radicals inhibited, converted from extinction
Text: In this examining method, human serum is subjected to the oxidative stress of a defined amount of para-benzoquinone. By adding defined amounts of the antioxidants to be tested (natural tocotrienol mixture of wheat bran oil, wheat germ oil, tocopherol acetat, D-alpha-tocopherol), the antioxidant load bearing capacity of the test sample is quantitated by calorimetric determination of the para-dihydroquinone that has been reduced from para-benzoquinone. […] Human donor blood is recovered from the vein without any additives and centrifuged at 800-1000 g after having been left standing for 1 h in the refrigerator (approximately +4° C.-+7° C.). The separated serum fractions are removed and pooled. The serum can be stored at -22° C. for about 14 days or immediately be used for the required measurements. To determine the antioxidant capacity of an antioxidant, the serum is radically loaded in stages. p-Benzoquinone was used for radical formation. In a physiological environment (pH=slightly alkaline), this substance is converted into the relatively stable radical anion of the quinhydrone system. In doing so, one hydrogen atom (1 proton/1 electron) of p-benzoquinone is taken up. The further reaction to the stable end product p-dihydroquinone takes place inversely proportionally, at pH 6.9-7.4 within minutes, and primarily linearly to the antioxidant content (reducing agent) in the reaction environment. Thus, the conditions for the applicability of Lambert-Beer's law have been met for determining the end product (dihydro-quinone) as a typically coloured substance. The comparatively stable radical anion (quinhydrone) is converted into the dihydroquinone in a second reduction step by taking up a further electrone (hydrogen from the available antioxidants). […] The calorimetric determination of the amount of end product is effected at λ=500 nm. […] With a linear extinction increase-and a linearly growing consumption of the antioxidant-active substance, the reacted portions can be precisely calculated from the stoichiometric reaction conditions. According to Michaelis/[…] and Pauling, respectively (Holleman-Wiberg; Lehrbuch der Anorganischen Chemie, de Gruyter-Verlag (1995)), the reaction intensity up to the dihydroquinone will depend on the ratio of the concentrations of oxidised to reduced. I.e., the higher the reduction (antioxidant) supply, the more the reaction will be inhibited, the content of the dihydroquinone forming will decrease. Thus, this reaction is excellently suited to be used in redox systems for finely dosed quantitative determinations for substances that are reducingly active. In three parallel measurement series, serum samples ([…] each) of the pool with p-benzoquinone are loaded in three stages (10, 20 and 30 μg). […] In the calculated reaction quantities, the mean of the 60 second value corresponds to the defined titer (=one third reaction). This value precisely results from the graphic illustration of the mean values as extinction curve. All further tests with antioxidant addition are comparatively related to this defined calibration value of the serum pool without antioxidant addition (i.e., with an increasing supply of antioxidants in the serum, the extinction must drop for dihydroquinone). Three parallel measurement series of serum samples were carried out under addition of 500 μg/ml of preparation according to the invention to determine the antioxidant capacity of the tocotrienol-rich wheat bran oils according to the invention. […] Referring to the curve of the extinction values of the comparative serum without additions and the stoichiometric reaction conditions applied (serum determination/concentration of p-benzoquinone/amount per ml of serum dilution), the conversion factor extinction to radical inhibition will result from this calibration system. […] For a more encompassing evaluation of the product quality, the comparison with other antioxidants is required. […]

Row | SMILES | Antiox-Titer | 1 mg of tocotrienol effect in μg radicals/ml · sec. [μg radicals/ml · sec.] | Radicals μg/ml · sec [μg/ml · sec]
1 | Cc1c(C)c2c(c(C)c1O)CC[C@@](C)(CCC[C@H](C)CCC[C@H](C)CCCC(C)C)O2 [D-alpha-Tocopherol, D-alpha-tocopherol] | 0.06 | 0.00674 | 1.6848
2 | CC(=O)Oc1c(C)c(C)c2c(c1C)CCC(C)(CCC[C@H](C)CCC[C@H](C)CCCC(C)C)O2 (stereo partly drawn) [Tocopherol acetate, D,L-alpha-tocopherol acetate] | 0.125 | 0.014 | 3.51
